Among the data in patent US7368578B2, “Five-membered heterocyclic compounds” (Takeda Pharmaceutical Company Limited, priority 2002, dated 2008) are melting point values, retold here.

The melting point is the temperature of the solid-liquid transition. Regarding `Cc1oc(-c2ccco2)nc1COc1ccc(COc2nn(Cc3ccccc3)cc2C=O)cc1` [Example 11, 1-benzyl-3-[(4{[2-(2-furyl)-5-methyl-1,3-oxazol-4-yl]methoxy}benzyl)oxy]-1H-pyrazole-4-carbaldehyde], the melting point lay within 118 to 119 °C.
As to `CCOC(=O)c1cn(Cc2ccccc2)nc1OCc1ccc(OCc2nc(-c3ccco3)oc2C)c(OC)c1` [Example 12, ethyl 1-benzyl-3-[(4-{[2-(2-furyl)-5-methyl-1,3-oxazol-4-yl]methoxy}-3-methoxybenzyl)oxy]-1H-pyrazole-4-carboxylate], the melting point is 117 to 118 °C.
The compound `COc1cc(COc2nn(Cc3ccccc3)cc2C(=O)O)ccc1OCc1nc(-c2ccco2)oc1C` [Example 13, 1-benzyl-3-[(4-{[2-(2-furyl)-5-methyl-1,3-oxazol-4-yl]methoxy}-3-methoxybenzyl)oxy]-1H-pyrazole-4-carboxylic acid] came in with a melting point of 167 to 168 °C.
Next, `COc1cc(COc2nn(Cc3ccccc3)cc2C(N)=O)ccc1OCc1nc(-c2ccco2)oc1C` [Example 14, 1-benzyl-3-[(4-{[2-(2-furyl)-5-methyl-1,3-oxazol-4-yl]methoxy}-3-methoxybenzyl)oxy]-1H-pyrazole-4-carboxamide]: 160 to 161 °C.
The compound `COc1cc(COc2nn(Cc3ccccc3)cc2CO)ccc1OCc1nc(-c2ccco2)oc1C` [Example 15, (1-benzyl-3-[(4-{[2-(2-furyl)-5-methyl-1,3-oxazol-4-yl]methoxy)-3-methoxybenzyl)oxy]-1H-pyrazol-4-yl}methanol] came in with a melting point of 104 to 105 °C.
`COc1cc(COc2nn(Cc3ccccc3)cc2C=O)ccc1OCc1nc(-c2ccco2)oc1C` [Example 16, 1-benzyl-3-[(4-{[2-(2-furyl)-5-methyl-1,3-oxazol-4-yl]methoxy}-3-methoxybenzyl)oxy]-1H-pyrazole-4-carbaldehyde] showed a melting point of 139 to 140 °C.
`COc1cc(COc2nn(Cc3ccccc3)cc2C(C)O)ccc1OCc1nc(-c2ccco2)oc1C` (stereo not shown) [Example 18, 1-{1-benzyl-3-[(4-{[2-(2-furyl)-5-methyl-1,3-oxazol-4-yl]methoxy}-3-methoxybenzyl)oxy]-1H-pyrazol-4-yl}-1-ethanol] gave a melting point of 105 to 106 °C.
Turning to `COc1cc(COc2nn(Cc3ccccc3)cc2C(C)=O)ccc1OCc1nc(-c2ccco2)oc1C` [Example 19, 1-{1-benzyl-3-[(4-{[2-(2-furyl)-5-methyl-1,3-oxazol-4-yl]methoxy}-3-methoxybenzyl)oxy]-1H-pyrazol-4-yl}-1-ethanone], the melting point lay in the range of 144 to 145 °C.
Compound `CCOC(=O)c1cn(Cc2ccccc2)nc1OCc1ccc(OCc2nc(-c3ccccc3)oc2C)cc1` [Example 20, ethyl 1-benzyl-3-({4-[(5-methyl-2-phenyl-1,3-oxazol-4-yl)methoxy]benzyl}oxy)-1H-pyrazole-4-carboxylate] yielded a melting point of 99 to 100 °C.
Consider `Cc1oc(-c2ccccc2)nc1COc1ccc(COc2nn(Cc3ccccc3)cc2C=O)cc1` [Example 22, 1-benzyl-3-[{4-[(5-methyl-2-phenyl-1,3-oxazol-4-yl)methoxy]benzyl}oxy]-1H-pyrazole-4-carbaldehyde], for which the melting point lay within 133 to 134 °C.
In the case of `CCOC(=O)c1cn(Cc2ccccc2)nc1OCc1cccc(OCc2nc(-c3ccccc3)oc2C)c1` [Example 23, ethyl 1-benzyl-3-({3-[(5-methyl-2-phenyl-1,3-oxazol-4-yl)methoxy]benzyl}oxy)-1H-pyrazole-4-carboxylate], the melting point was in the range of 95 to 96 °C.
The figure for `Cc1oc(-c2ccccc2)nc1COc1cccc(COc2nn(Cc3ccccc3)cc2C=O)c1` [Example 25, 1-benzyl-3-({3-[(5-methyl-2-phenyl-1,3-oxazol-4-yl)methoxy]benzyl}oxy)-1H-pyrazole-4-carbaldehyde] is 131 to 132 °C.
For the compound `CCOC(=O)c1cn(Cc2ccccc2)nc1OCc1cccc(OCc2nc(-c3ccco3)oc2C)c1` [Example 26, ethyl 1-benzyl-3-[(3-{[2-(2-furyl)-5-methyl-1,3-oxazol-4-yl]methoxy}benzyl)oxy]-1H-pyrazole-4-carboxylate], the melting point lay in the range of 92 to 93 °C.
`Cc1oc(-c2ccco2)nc1COc1cccc(COc2nn(Cc3ccccc3)cc2C=O)c1` [Example 28, 1-benzyl-3-[(3-{[2-(2-furyl)-5-methyl-1,3-oxazol-4-yl]methoxy}benzyl)oxy]-1H-pyrazole-4-carbaldehyde] showed a melting point of 135 to 136 °C.
For `CCOC(=O)c1cn(Cc2ccccc2)nc1OCc1ccc(OCc2nc(-c3ccco3)oc2C)c(OCC)c1` [Example 29, ethyl 1-benzyl-3-[(3-ethoxy-4-{[2-(2-furyl)-5-methyl-1,3-oxazol-4-yl]methoxy}benzyl)oxy]-1H-pyrazole-4-carboxylate], the melting point is 121 to 122 °C.
`CCOc1cc(COc2nn(Cc3ccccc3)cc2C=O)ccc1OCc1nc(-c2ccco2)oc1C` [Example 31, 1-benzyl-3-[(3-ethoxy-4-{[2-(2-furyl)-5-methyl-1,3-oxazol-4-yl]methoxy}benzyl)oxy]-1H-pyrazole-4-carbaldehyde] had a melting point of 144 to 145 °C.
Compound `CCOC(=O)c1cn(Cc2ccccc2)nc1OCc1ccc(OC)c(OCc2nc(-c3ccco3)oc2C)c1` [Example 32, ethyl 1-benzyl-3-[(3-{[2-(2-furyl)-5-methyl-1,3-oxazol-4-yl]methoxy}-4-methoxybenzyl)oxy]-1H-pyrazole-4-carboxylate] came in with a melting point of 147 to 148 °C.
The figure for `COc1ccc(COc2nn(Cc3ccccc3)cc2C=O)cc1OCc1nc(-c2ccco2)oc1C` [Example 34, 1-benzyl-3-[(3-{[2-(2-furyl)-5-methyl-1,3-oxazol-4-yl]methoxy}-4-methoxybenzyl)oxy]-1H-pyrazole-4-carbaldehyde] is 142 to 143 °C.
`CCOC(=O)c1cn(Cc2ccccc2)nc1OCc1ccc(OCc2nc(-c3ccco3)oc2C)c(Cl)c1` [Example 35, ethyl 1-benzyl-3-[(3-chloro-4-{[2-(2-furyl)-5-methyl-1,3-oxazol-4-yl]methoxy}benzyl)oxy]-1H-pyrazole-4-carboxylate]: the melting point was in the range of 153 to 154 °C.
Take `Cc1oc(-c2ccco2)nc1COc1ccc(COc2nn(Cc3ccccc3)cc2C=O)cc1Cl` [Example 37, 1-benzyl-3-[(3-chloro-4-{[2-(2-furyl)-5-methyl-1,3-oxazol-4-yl]methoxy}benzyl)oxy]-1H-pyrazole-4-carbaldehyde]: the melting point fell in the range of 158 to 159 °C.
`Cc1oc(-c2ccco2)nc1COc1ccc(COc2nn(Cc3ccccc3)cc2C(=O)O)cc1Cl` [Example 38, 1-benzyl-3-[(3-chloro-4-{[2-(2-furyl)-5-methyl-1,3-oxazol-4-yl]methoxy}benzyl)oxy]-1H-pyrazole-4-carboxylic acid] gave a melting point of 191 to 192 °C.
In turn, `CCOC(=O)c1cn(Cc2ccccc2)nc1OCc1ccc(OCc2nc(-c3ccco3)oc2C)c(OCOC)c1` [Example 39, ethyl 1-benzyl-3-[(4-{[2-(2-furyl)-5-methyl-1,3-oxazol-4-yl]methoxy}-3-(methoxymethoxy)benzyl)oxy]-1H-pyrazole-4-carboxylate] registered a melting point of 120 to 121 °C.
Next, `CCOC(=O)c1cn(Cc2ccccc2)nc1OCc1ccc(OCc2nc(-c3ccco3)oc2C)nc1` [Example 40, ethyl 1-benzyl-3-[(6-{[2-(2-furyl)-5-methyl-1,3-oxazol-4-yl]methoxy}-3-pyridinyl)methoxy]-1H-pyrazole-4-carboxylate]: 140 to 141 °C.
Consider `Cc1oc(-c2ccco2)nc1COc1ccc(COc2nn(Cc3ccccc3)cc2C(=O)O)cn1` [Example 43, 1-benzyl-3-[(6-{[2-(2-furyl)-5-methyl-1,3-oxazol-4-yl]methoxy}-3-pyridinyl)methoxy]-1H-pyrazole-4-carboxylic acid], for which the melting point lay within 151 to 152 °C.
In turn, `COCOc1cc(COc2nn(Cc3ccccc3)cc2C=O)ccc1OCc1nc(-c2ccco2)oc1C` [Example 45, 1-benzyl-3-([4-{[2-(2-furyl)-5-methyl-1,3-oxazol-4-yl]methoxy}-3-(methoxymethoxy)benzyl]oxy)-1H-pyrazole-4-carbaldehyde] returned a melting point of 141 to 142 °C.
Next, `CCOC(=O)c1cn(Cc2ccccc2)nc1OCc1ccc(OCc2nc(-c3ccco3)oc2C)c(O)c1` [Example 46, ethyl 1-benzyl-3-[(4-{[2-(2-furyl)-5-methyl-1,3-oxazol-4-yl]methoxy}-3-hydroxybenzyl)oxy]-1H-pyrazole-4-carboxylate]: 134 to 135 °C; `CCOC(=O)c1cn(Cc2ccccc2)nc1OCc1ccc(OCc2nc(-c3ccco3)oc2C)c(OCc2ccccc2)c1` [Example 48, ethyl 1-benzyl-3-[(3-benzyloxy-4-{[2-(2-furyl)-5-methyl-1,3-oxazol-4-yl]methoxy}benzyl)oxy]-1H-pyrazole-4-carboxylate]: 127 to 128 °C; `Cc1oc(-c2ccco2)nc1COc1ccc(COc2nn(Cc3ccccc3)cc2C=O)cc1OCc1ccccc1` [Example 50, 1-benzyl-3-[(3-benzyloxy-4-{[2-(2-furyl)-5-methyl-1,3-oxazol-4-yl]methoxy}benzyl)oxy]-1H-pyrazole-4-carbaldehyde]: 130 to 131 °C.
`Cc1oc(-c2ccco2)nc1COc1ccc(COc2nn(Cc3ccccc3)cc2C(=O)O)cc1OCc1ccccc1` [Example 51, 1-benzyl-3-[(3-benzyloxy-4-{[2-(2-furyl)-5-methyl-1,3-oxazol-4-yl]methoxy}benzyl)oxy]-1H-pyrazole-4-carboxylic acid] came in with a melting point of 184 to 185 °C.
For `CCOC(=O)c1cn(Cc2ccccc2)nc1OCc1ccc(OCc2nc(-c3ccco3)oc2C)cc1OC` [Example 52, ethyl 1-benzyl-3-[(4-{[2-(2-furyl)-5-methyl-1,3-oxazol-4-yl]methoxy}-2-methoxybenzyl)oxy]-1H-pyrazole-4-carboxylate], the melting point lay in the range of 137 to 138 °C.
With `COc1cc(OCc2nc(-c3ccco3)oc2C)ccc1COc1nn(Cc2ccccc2)cc1C=O` [Example 54, 1-benzyl-3-[(4-{[2-(2-furyl)-5-methyl-1,3-oxazol-4-yl]methoxy}-2-methoxybenzyl)oxy]-1H-pyrazole-4-carbaldehyde], the melting point lay in the range of 147 to 148 °C.
